Data taken from patent US4610982A, “Anti-inflammatory benzo- and thieno-1,2-thiazine-3-carboxamide 1,1-dioxide derivatives, compositions, and method of use therefor” (Pfizer Inc., priority 1985, dated 1986).

Key:
[1] = system: carrageenin-induced rat foot edema; experiment: carrageenin-induced rat foot edema test; format: in vivo; settings: 32 mg./kg. dose level, oral route; rat hind paw edema three hours after carrageenin injection
Text: (§1) The novel 2-acetoxybenzoyl and ring-substituted α-arylpropionyl oxicam esters of the present invention are all readily adapted to therapeutic use as anti-arthritic agents. […] A. Winter et al., Proc. Soc. Exp. Biol. Med., Vol. 111, p. […] Additionally, hydrolysis of this novel product in vivo simultaneously produces two different anti-inflammatory compounds of known value (viz., piroxicam and ketoprofen). The other oxicam ester compounds of this invention also afford similar results.
In this test, anti-inflammatory activity is determined as the percent inhibition of edema formation in the hind paw of male albino rats (weighing 150-190g.) in response to a sub-plantar injection of carrageenin. The carrageenin is injected as a 1% aqueous suspension (0.015 ml.) one hour after oral administration of the drug, which is normally given in the form of an aqueous solution. Edema formation is then assessed by measuring the volume of the injected paw initially as well as three hours after the carrageenin injection. The increase in volume three hours after carrageenin injection constitutes the individual response. […]

lipoxygenase = lipoxygenase inhibition; format: biochemical
cyclooxygenase = cyclooxygenase (Homo sapiens, UniProt P23219); experiment: cyclooxygenase inhibition; format: biochemical
Text: as §1

Sequence of cyclooxygenase (P23219 24-599): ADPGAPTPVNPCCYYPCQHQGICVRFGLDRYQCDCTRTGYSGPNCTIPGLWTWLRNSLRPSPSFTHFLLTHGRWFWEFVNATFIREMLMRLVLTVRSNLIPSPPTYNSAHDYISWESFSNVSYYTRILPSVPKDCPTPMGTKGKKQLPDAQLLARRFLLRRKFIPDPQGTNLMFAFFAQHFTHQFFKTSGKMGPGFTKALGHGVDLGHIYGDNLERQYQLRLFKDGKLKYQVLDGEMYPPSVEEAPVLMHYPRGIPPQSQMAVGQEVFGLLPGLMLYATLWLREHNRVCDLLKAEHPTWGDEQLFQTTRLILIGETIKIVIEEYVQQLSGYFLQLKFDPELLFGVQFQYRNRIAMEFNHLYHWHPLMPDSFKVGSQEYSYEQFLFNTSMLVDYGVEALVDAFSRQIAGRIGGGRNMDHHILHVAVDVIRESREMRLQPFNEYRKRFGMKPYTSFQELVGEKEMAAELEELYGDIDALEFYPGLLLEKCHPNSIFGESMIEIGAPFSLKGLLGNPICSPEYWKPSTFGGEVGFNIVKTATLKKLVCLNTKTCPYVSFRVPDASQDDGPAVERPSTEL

IC50 (lipoxygenase): 0.02 µM
IC50 (cyclooxygenase): 10 µM
Compound: CC(C(=O)OC1=C(C(=O)Nc2ccccn2)N(C)S(=O)(=O)c2ccccc21)c1cccc(C(=O)c2ccccc2)c1 (stereo not drawn) [Example 3, 4-[α-(3-benzoylphenyl)propionyloxy]-2-methyl-N-(2-pyridinyl)-2H-1,2-benzothiazine-3-carboxamide 1,1-dioxide]
inhibition in swelling [1]: 64%
